Results as given in ChEMBL document CHEMBL1201862, “PubChem BioAssay data set” (2004).
Active and inactive are the calls of the source.

Columns and labels:
Genome polyprotein = Genome polyprotein (dengue virus type 2, UniProt P29990); experiment: Dengue-2 NS5 methyltransferase inhibitors, primary screen, biochemical, confirmation dose response (AID 588689); type: functional
[1] = control 3'UTR Renilla luciferase suppression, dose response, counter-screen for Shn3 inhibitor project, cell-based, Clone20-Shn3RL, cherry-picked (AID 624133); type: functional
Vero = Vero cell cytotoxicity, cytotoxicity control for flavivirus capping enzyme inhibitors (AID 588742); type: functional; details: Chlorocebus sabaeus
[2] = Shn3 3'UTR reporter inhibitors, dose response, cell-based, Clone20 osteoblasts, firefly luciferase, cherry-picked (AID 624132); type: functional;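 also: firefly luciferase luminescence from reporter carrying the Shn3 3'UTR in osteoblasts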
[3] = molecular target: Hepatocyte nuclear factor 4-alpha (Homo sapiens, UniProt P41235); type: functional, cell-based;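 also: biochemical luminescence-based dose-response counterscreen measuring inhibition of HNF4 dimerization, run alongside a screen for blockers of ABHD5–perilipin-5 interaction; split luciferase complementation of HNF4 fusion proteins in cell lysate measuring dimerization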
[4] = molecular target: T1, Replicative DNA helicase DnaB (Mycobacterium tuberculosis, UniProt P9WMR3); experiment: DnaB intein splicing inhibitors, dose response, biochemical, cell-free fluorescence (AID 449749); type: functional
T1 sequence (P9WMR3 whole entry): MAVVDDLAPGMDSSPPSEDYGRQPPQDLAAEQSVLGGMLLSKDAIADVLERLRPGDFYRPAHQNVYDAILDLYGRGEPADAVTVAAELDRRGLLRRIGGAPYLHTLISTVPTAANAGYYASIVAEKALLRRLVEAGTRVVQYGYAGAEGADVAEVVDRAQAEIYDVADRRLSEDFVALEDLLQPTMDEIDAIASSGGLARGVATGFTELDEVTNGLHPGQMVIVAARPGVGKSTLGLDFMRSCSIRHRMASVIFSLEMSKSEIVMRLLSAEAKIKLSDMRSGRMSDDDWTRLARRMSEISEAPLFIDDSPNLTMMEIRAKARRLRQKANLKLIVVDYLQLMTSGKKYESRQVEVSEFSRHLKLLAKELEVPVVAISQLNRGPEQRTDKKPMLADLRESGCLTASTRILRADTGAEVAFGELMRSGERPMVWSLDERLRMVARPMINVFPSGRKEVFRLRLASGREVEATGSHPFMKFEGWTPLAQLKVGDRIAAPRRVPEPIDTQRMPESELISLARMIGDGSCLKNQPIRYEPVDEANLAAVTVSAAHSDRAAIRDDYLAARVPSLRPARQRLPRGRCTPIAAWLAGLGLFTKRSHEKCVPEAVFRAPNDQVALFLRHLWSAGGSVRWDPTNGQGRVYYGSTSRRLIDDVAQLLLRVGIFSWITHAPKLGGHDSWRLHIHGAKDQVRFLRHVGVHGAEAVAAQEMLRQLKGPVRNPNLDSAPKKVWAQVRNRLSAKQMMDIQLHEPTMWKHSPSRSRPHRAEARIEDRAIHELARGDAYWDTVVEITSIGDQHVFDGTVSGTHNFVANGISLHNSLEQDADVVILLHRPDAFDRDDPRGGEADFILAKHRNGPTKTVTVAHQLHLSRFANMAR

[5] = molecular target: Potassium voltage-gated channel subfamily KQT member 2 (Rattus norvegicus, UniProt O88943, W236L); experiment: KCNQ2 channel potentiators, dose response, mechanism study for KCNQ2 potentiator project, cell-based, automated electrophysiology (AID 2603); type: functional
[6] = Luminescence Cell-Based Dose Retest to Confirm Inhibitors of Cancer Stem Cells. [Related pubchem assays (depositor defined):AID2717, AID2721]; type: functional; details: Homo sapiens
Protein RecA = molecular target: T2, Protein RecA (Mycobacterium tuberculosis, UniProt P9WHJ3); experiment: Fluorescence Cell-Free Homogeneous Dose Retest to Identify Inhibitors of RecA-Intein Splicing Activity. [Related pubchem assays (depositor defined):AID2097, AID2223, AID489010, AID492950]; type: functional
T2 sequence (P9WHJ3 whole entry): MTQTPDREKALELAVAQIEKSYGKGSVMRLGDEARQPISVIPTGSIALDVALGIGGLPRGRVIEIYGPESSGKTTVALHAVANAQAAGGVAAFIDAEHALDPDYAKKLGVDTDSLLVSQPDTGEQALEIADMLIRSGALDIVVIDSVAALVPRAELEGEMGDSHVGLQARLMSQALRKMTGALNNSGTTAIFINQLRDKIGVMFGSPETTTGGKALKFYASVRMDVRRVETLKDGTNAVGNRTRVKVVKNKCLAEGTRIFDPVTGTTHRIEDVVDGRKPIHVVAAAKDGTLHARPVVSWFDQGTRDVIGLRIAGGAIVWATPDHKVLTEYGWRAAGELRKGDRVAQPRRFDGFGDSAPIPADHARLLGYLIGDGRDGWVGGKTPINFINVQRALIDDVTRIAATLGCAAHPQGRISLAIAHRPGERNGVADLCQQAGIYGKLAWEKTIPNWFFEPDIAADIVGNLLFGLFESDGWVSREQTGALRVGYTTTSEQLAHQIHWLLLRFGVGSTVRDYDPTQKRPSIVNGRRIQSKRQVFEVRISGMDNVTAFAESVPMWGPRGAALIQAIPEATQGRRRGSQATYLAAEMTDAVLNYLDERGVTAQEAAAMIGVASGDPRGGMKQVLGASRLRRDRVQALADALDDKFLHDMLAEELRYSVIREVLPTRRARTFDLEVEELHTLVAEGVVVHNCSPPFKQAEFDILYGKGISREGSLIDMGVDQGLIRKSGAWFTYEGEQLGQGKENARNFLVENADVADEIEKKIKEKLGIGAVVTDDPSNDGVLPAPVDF

[7] = Intein inhibitors as potential Tuberculosis drugs, a cytotoxicity screen. [Related pubchem assays (depositor defined):AID2221, AID2223, AID434968, AID435010, AID449749, AID449750, AID489010]; type: functional
NADPH oxidase 1 = molecular target: T3, NADPH oxidase 1 (Homo sapiens, UniProt Q9Y5S8); experiment: Luminescence-based cell-based dose response assay to identify inhibitors of NADPH oxidase 1 (NOX1).; type: functional
T3 sequence (Q9Y5S8 whole entry): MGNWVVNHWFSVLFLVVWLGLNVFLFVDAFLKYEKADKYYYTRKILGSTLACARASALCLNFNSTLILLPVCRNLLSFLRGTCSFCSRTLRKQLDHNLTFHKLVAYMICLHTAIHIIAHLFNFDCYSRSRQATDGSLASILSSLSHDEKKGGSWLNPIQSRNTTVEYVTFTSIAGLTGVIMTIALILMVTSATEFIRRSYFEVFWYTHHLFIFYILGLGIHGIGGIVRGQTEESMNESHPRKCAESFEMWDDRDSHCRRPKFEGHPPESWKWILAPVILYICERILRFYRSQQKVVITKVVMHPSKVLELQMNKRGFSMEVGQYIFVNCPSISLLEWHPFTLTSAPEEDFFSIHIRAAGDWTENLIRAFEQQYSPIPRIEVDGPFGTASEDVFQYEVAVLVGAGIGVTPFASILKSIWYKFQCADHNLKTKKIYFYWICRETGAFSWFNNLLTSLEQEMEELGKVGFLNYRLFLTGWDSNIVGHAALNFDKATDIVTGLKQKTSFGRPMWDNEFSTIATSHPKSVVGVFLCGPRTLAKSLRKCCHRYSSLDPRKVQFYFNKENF

[8] = M. tuberculosis H37Rv growth inhibitors, H37Rv strain (AID 1626); type: functional
[9] = molecular target: T4, Mannose-6-phosphate isomerase (Homo sapiens, UniProt P34949); experiment: inhibitors of human PMI, primary screen, biochemical, fluorescence intensity, coupled assay (AID 1209)
T4 sequence (P34949 whole entry): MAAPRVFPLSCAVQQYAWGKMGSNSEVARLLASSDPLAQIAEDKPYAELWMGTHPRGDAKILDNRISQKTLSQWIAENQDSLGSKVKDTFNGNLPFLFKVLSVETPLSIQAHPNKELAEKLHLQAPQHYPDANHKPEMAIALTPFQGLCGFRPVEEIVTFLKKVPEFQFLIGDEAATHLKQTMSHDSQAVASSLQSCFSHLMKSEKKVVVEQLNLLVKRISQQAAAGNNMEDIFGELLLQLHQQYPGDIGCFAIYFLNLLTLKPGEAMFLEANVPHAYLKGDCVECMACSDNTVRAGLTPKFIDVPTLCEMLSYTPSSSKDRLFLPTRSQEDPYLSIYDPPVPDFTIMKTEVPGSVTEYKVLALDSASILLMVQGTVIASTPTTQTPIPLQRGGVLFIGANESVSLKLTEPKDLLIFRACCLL

[10] = molecular target: T5, Calpain-2 catalytic subunit (Sus scrofa, UniProt P43367); experiment: pig calpain II inhibitor potency, dose response, biochemical, fluorogenic peptide substrate (AID 1420); type: functional
T5 sequence (P43367 whole entry): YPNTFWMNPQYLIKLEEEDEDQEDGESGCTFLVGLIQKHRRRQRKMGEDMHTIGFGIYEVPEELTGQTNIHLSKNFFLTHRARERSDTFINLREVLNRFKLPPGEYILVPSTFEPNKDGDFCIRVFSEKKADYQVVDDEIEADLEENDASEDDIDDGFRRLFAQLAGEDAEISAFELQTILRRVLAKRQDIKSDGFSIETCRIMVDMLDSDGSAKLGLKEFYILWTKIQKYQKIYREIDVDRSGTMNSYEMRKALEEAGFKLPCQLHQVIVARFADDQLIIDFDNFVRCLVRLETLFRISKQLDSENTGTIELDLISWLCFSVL

[11] = molecular target: Lytic switch protein BZLF1 (Epstein-Barr virus (strain B95-8) (HHV-4) (Human herpesvirus 4), UniProt P03206); experiment: EBV ZTA inhibitors, dose response, counter-screen for EBNA-1 inhibitor project, biochemical, fluorescence polarization, Epstein-Barr virus, 1536-well (AID 2377); set-up: species or system human gammaherpesvirus 4;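 also: fluorescence polarization of Cy5-labelled ZRE DNA probe bound by purified Zta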
[12] = molecular target: Epstein-Barr nuclear antigen 1 (Epstein-Barr virus (strain B95-8) (HHV-4) (Human herpesvirus 4), UniProt P03211); experiment: EBNA-1 inhibitors, dose response, biochemical, fluorescence polarization, 1536-well (AID 2381); set-up: species or system human gammaherpesvirus 4;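 also: fluorescence polarization of a Cy5 DNA probe bound by EBNA-1 protein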
[13] = molecular target: T6, Dual specificity protein phosphatase 6 (Rattus norvegicus, UniProt Q64346); type: functional
T6 sequence (Q64346 whole entry): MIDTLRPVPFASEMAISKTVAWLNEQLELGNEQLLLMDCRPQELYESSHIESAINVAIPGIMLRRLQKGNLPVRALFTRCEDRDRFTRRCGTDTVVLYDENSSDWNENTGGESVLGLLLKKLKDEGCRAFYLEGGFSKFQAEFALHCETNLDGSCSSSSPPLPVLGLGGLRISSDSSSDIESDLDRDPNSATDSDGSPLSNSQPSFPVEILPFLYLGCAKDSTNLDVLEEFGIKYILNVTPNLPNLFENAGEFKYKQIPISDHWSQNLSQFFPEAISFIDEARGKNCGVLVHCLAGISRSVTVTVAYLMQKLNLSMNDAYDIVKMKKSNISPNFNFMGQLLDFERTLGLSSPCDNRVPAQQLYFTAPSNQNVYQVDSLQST

[14] = molecular target: Glyceraldehyde-3-phosphate dehydrogenase (Homo sapiens, UniProt P04406)
[15] = molecular target: Protein-tyrosine kinase 2-beta (Homo sapiens, UniProt Q14289);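 also: potency of inhibitors of PYK2 kinase phosphorylation of poly-GT substrate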
[16] = molecular target: T6, Dual specificity protein phosphatase 6
[17] = molecular target: T7, Tyrosine-protein phosphatase non-receptor type 7 (Homo sapiens, UniProt P35236); type: functional
T7 sequence (P35236 whole entry): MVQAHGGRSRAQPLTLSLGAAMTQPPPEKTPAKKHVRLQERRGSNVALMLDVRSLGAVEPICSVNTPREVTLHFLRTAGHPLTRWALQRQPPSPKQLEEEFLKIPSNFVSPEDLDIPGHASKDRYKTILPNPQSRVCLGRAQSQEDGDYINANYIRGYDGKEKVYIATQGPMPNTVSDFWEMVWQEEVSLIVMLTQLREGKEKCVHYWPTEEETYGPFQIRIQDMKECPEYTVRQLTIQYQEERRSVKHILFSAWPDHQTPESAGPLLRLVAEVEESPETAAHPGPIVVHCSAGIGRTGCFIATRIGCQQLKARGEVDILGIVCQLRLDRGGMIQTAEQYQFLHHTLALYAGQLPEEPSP

Bcl-2-like protein 1 = Bcl-2-like protein 1 (Homo sapiens, UniProt Q07817); experiment: BCL-XL inhibitors, dose response, selectivity assay for MCL1 inhibitor project, biochemical, fluorescence polarization, 1536-well (AID 2218)
[18] = molecular target: T8, Induced myeloid leukemia cell differentiation protein Mcl-1 (Homo sapiens, UniProt Q07820); type: functional
[19] = molecular target: T8, Induced myeloid leukemia cell differentiation protein Mcl-1; experiment: MCL1-BIM BH3 interaction inhibitors, dose response, biochemical, fluorescence polarization, BIM-BH3 peptide, 1536-well (AID 2217)

T8 sequence (Q07820 whole entry): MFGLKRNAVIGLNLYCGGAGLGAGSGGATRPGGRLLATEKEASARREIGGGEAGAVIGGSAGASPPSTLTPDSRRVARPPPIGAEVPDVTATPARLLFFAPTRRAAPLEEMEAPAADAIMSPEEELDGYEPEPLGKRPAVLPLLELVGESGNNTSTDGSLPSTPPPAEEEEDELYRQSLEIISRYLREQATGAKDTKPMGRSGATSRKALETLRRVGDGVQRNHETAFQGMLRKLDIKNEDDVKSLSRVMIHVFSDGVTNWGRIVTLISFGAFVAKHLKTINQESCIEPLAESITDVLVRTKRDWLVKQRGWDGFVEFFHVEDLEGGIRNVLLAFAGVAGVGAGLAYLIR
Chain of Bcl-2-like protein 1 (Q07817 whole entry): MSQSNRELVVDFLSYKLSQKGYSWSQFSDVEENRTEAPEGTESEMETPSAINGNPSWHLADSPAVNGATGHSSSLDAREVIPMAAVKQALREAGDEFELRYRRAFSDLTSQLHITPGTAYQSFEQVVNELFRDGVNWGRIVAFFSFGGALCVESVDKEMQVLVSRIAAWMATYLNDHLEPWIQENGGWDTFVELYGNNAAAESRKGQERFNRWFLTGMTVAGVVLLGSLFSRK
Chain of Glyceraldehyde-3-phosphate dehydrogenase (P04406 whole entry): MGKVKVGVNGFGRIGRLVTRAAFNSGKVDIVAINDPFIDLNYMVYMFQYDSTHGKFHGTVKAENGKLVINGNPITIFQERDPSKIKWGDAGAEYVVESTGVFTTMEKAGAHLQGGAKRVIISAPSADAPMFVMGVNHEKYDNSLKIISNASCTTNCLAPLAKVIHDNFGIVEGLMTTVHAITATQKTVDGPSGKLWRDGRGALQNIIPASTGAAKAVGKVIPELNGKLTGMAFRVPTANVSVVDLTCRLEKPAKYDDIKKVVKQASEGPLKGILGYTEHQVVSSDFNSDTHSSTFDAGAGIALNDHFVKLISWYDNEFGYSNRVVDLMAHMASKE
Chain of Lytic switch protein BZLF1 (P03206 whole entry): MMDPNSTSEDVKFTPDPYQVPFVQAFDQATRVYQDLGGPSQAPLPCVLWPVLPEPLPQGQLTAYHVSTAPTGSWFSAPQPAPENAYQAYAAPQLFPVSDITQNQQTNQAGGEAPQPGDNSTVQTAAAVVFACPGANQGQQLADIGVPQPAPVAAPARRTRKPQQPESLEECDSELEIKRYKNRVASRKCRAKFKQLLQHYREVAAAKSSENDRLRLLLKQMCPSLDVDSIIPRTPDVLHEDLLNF
Chain of Hepatocyte nuclear factor 4-alpha (P41235 whole entry, the tested form may be a part): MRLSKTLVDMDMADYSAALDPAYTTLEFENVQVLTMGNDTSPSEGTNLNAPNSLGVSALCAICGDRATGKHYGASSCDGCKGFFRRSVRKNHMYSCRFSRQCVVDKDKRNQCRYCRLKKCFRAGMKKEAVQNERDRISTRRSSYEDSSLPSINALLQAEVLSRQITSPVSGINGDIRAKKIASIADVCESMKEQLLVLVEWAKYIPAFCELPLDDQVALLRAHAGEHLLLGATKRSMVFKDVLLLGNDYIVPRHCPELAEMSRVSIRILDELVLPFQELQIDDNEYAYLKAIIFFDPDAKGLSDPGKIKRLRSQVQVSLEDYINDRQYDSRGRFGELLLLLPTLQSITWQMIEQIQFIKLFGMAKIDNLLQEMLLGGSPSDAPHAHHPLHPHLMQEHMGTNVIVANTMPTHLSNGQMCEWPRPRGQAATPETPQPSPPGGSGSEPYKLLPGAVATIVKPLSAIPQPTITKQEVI
Chain of Potassium voltage-gated channel subfamily KQT member 2 (O88943 whole entry W236L): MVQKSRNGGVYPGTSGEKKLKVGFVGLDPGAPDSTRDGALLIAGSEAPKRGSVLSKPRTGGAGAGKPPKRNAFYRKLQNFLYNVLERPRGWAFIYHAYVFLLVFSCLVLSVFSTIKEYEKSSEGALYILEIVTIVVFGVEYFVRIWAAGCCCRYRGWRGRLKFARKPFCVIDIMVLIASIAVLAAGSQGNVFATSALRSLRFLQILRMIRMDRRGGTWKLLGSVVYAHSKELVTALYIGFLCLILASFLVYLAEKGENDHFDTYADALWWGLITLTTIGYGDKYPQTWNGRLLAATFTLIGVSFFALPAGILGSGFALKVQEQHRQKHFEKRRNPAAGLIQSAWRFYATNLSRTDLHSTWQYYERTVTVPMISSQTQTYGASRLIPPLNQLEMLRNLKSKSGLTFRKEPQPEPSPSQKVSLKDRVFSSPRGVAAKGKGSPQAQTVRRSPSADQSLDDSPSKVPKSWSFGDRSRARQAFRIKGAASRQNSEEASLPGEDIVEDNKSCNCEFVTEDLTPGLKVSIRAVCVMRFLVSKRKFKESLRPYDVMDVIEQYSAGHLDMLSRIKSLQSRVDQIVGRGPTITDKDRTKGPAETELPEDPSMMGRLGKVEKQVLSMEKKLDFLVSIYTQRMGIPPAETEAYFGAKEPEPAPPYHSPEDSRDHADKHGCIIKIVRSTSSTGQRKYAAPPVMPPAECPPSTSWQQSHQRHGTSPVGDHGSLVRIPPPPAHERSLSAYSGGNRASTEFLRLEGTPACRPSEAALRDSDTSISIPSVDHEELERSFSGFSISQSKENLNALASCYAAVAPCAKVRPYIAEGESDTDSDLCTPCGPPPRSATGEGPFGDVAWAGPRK
Chain of Protein-tyrosine kinase 2-beta (Q14289 whole entry): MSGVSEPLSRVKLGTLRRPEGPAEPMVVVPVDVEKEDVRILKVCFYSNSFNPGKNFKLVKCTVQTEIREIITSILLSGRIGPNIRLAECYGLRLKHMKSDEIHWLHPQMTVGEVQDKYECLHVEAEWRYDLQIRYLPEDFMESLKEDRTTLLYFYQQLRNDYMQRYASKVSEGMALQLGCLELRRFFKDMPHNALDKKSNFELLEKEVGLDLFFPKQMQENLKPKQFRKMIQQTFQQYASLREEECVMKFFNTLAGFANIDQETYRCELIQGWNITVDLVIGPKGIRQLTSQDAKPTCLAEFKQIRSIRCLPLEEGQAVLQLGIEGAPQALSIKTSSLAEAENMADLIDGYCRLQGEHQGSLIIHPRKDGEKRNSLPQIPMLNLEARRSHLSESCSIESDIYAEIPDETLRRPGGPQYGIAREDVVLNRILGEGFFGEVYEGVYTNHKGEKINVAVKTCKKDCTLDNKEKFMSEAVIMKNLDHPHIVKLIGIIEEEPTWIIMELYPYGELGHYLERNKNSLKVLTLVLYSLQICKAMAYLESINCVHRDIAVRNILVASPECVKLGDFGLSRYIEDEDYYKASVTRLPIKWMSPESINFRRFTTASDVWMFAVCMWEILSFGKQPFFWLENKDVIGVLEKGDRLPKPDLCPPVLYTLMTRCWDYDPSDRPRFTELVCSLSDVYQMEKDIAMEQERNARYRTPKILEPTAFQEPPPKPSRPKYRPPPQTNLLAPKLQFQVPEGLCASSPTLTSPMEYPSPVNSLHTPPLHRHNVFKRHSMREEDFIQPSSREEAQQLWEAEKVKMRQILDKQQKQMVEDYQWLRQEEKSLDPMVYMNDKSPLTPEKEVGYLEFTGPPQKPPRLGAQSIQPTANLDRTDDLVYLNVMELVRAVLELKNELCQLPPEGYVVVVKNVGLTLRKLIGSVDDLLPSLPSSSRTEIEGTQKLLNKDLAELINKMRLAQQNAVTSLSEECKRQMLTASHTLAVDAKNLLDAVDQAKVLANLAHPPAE
Chain of Genome polyprotein (P29990 2492-3391 limits assumed): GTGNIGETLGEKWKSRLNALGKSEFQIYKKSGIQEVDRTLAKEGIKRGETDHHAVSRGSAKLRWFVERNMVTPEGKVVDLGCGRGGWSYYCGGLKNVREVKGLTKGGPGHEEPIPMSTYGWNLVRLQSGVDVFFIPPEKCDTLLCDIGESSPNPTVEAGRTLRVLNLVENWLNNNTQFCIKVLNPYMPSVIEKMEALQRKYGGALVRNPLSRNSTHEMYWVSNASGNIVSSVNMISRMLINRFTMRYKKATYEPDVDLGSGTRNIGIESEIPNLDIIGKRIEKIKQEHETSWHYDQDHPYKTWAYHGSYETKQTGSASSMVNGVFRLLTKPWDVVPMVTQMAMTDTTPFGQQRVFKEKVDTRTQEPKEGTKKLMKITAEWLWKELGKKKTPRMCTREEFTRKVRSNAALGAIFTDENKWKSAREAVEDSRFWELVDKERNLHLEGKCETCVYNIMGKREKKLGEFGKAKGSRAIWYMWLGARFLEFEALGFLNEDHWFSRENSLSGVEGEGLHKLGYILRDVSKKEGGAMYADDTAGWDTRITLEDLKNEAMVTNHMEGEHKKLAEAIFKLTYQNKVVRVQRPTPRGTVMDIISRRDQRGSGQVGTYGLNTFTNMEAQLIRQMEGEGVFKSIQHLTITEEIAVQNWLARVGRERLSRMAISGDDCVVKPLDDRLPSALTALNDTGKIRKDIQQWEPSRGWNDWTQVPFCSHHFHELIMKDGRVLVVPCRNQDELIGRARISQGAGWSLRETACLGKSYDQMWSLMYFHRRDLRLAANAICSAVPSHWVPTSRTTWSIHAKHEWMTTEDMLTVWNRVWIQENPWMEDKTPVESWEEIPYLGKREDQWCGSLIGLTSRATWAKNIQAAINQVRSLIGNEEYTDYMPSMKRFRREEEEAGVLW

CSc1nnc(NC(=O)c2nc(S(=O)(=O)Cc3ccccc3F)ncc2Cl)s1
IC50 (Genome polyprotein): 52.3 µM (active)
AC50 [1]: 13 µM (active)
CC50 (Vero): 27.8 µM (active)
AC50 [2]: 1.55 µM (active)
IC50 [3]: 3.98 µM (active)
AC50 [4]: 5 µM (active)
EC50 [5]: 4.19 µM (active)
AC50 [6]: 2.14 µM (active)
EC50 (Protein RecA): 3.5 µM (active)
CC50 [7]: 35.4 µM (active)

CCOc1ccc(NC(=O)Nc2ccc(N(C)C(C)=O)cc2)cc1
IC50 (NADPH oxidase 1): > 20 µM (not active)

Nc1ccc(N=Nc2ccccc2)cc1
IC50 [8]: > 100 µM (active)

CCOC(=O)NC1(Nc2cccc(Cl)c2)Oc2ccccc2O1
IC50 [9]: > 50 µM (not active)

CCOC(=O)c1ccc(NC(=O)C2CC(=O)Nc3nc4ccccc4n32)cc1 (centres undefined)
IC50 [10]: > 50 µM (not active)
IC50 [11]: > 111 µM (not active)
IC50 [12]: > 5.47 µM (active)

Cc1cc(NC(=O)Cc2cccs2)no1
IC50 [13]: 13.1 µM (active)
IC50 [14]: 92.2 µM (active)
IC50 [15]: 6.64 µM (active)
IC50 [16]: 15.3 µM (active)
IC50 [17]: 3.93 µM (active)
IC50 (Bcl-2-like protein 1): 53.2 µM (not active)
IC50 [18]: 1.58 µM (active)
IC50 [19]: 4.05 µM (active)
